pEC50: −log10 of the molar value.
What was measured:
[1] = molecular target: T1, porcine beta-2 adrenoceptor (Sus scrofa, UniProt Q28997); experiment: cAMP assay in CHO cells transfected with the porcine beta-2 adrenoceptor; format: cell-based; details: cAMP (DiscoveRx Hit Hunter cAMP II) in CHO cells transfected with porcine beta-2 adrenoceptor, 30 minutes with compound, 0.5 mM IBMX
T1 construct: expressed in transfected cells; host or cells: CHO cells
Description: (§1) CHO cells transfected with the bovine or porcine beta-2 adrenceptors were maintained in culture in DMEM/HAMS F12+10% FBS+2 mM glutamine+500 μg/ml geneticin (for the porcine receptor the medium was supplement with 1.5 mM HEPES) at 37° C. with a 5% CO2 atmosphere.
(§2) Cells were plated into 96 well viewplates in medium and incubated overnight at 37° C. with a 5% CO2 atmosphere. The cells were pre-incubated with 0.5 mM IBMX in PBS for 30 minutes prior to incubation with increasing concentrations of experimental compound (5×10^−12 to 10^−5 M) for 30 minutes at 37° C. with a 5% CO2 atmosphere. At the end of the incubation time the compound was removed and the cells assayed for cAMP using the DiscoveRx Hit Hunter cAMP II™ assay kit.
(§3) Duplicate samples were run for each experimental compound and the data generated was analysed using EC50 analysis software in Graphpad Prism.

[2] = molecular target: T2, bovine beta-2 adrenoceptor (Bos taurus, UniProt Q28044); experiment: cAMP assay in CHO cells transfected with the bovine beta-2 adrenoceptor; format: cell-based; details: cAMP (DiscoveRx Hit Hunter cAMP II) in CHO cells transfected with bovine beta-2 adrenoceptor, 30 minutes with compound, 0.5 mM IBMX
T2 construct: expressed in transfected cells; host or cells: CHO cells
Description: as §1, §2, §3

T1 sequence (Q28997 whole entry): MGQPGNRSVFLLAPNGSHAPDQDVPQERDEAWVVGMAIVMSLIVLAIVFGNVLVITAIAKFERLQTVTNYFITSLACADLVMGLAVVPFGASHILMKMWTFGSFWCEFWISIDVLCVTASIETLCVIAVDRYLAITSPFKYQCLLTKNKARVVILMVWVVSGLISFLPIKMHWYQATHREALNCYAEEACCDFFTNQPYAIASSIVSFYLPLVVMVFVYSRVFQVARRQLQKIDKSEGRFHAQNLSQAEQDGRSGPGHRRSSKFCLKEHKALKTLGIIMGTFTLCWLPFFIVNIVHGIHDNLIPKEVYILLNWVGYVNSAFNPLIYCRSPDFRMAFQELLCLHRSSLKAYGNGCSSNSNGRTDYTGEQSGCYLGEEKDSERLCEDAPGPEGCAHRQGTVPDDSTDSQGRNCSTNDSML
T2 sequence (Q28044 whole entry): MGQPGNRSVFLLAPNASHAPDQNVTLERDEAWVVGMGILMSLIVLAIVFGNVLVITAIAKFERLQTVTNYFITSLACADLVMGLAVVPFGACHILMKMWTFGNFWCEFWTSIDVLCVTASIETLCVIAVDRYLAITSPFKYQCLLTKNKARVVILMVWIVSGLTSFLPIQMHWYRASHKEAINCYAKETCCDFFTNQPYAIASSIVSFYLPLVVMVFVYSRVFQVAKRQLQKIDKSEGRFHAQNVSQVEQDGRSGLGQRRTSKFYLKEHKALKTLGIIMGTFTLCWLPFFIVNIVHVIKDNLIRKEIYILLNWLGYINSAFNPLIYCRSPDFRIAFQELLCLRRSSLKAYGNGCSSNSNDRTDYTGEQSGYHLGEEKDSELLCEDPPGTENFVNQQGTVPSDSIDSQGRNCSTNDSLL

| Compound | pEC50 [1] | pEC50 [2] |
| --- | --- | --- |
| CC(CCc1ccc(OCC2CC2)cc1)N[C@@H]1CCn2c(=O)[nH]c3cccc(c32)[C@H]1O (mixture of isomers) [Example 1a, 6-({3-[4-(Cyclopropylmethoxy)phenyl]-1-methylpropyl}amino)-7-hydroxy-4,5,6,7-tetrahydroimidazo[4,5,1-jk][1]benzazepin-2(1H)-one] | 8.23 | 7.85 |
| CC(CCc1ccc(OCC2CC2)cc1)N[C@@H]1CCn2c(=O)[nH]c3cccc(c32)[C@H]1O (mixture of isomers) [Example 1c, 6-({3-[4-(Cyclopropylmethoxy)phenyl]-1-methylpropyl}amino)-7-hydroxy-4,5,6,7-tetrahydroimidazo[4,5,1-jk][1]benzazepin-2(1H)-one] | 8.32 | 7.91 |
| CC(CCc1ccccc1O)N[C@@H]1CCn2c(=O)[nH]c3cccc(c32)[C@H]1O (mixture of isomers) [Example 6a, 7-Hydroxy-6-{[3-(2-hydroxyphenyl)-1-methylpropyl]amino}-4,5,6,7-tetrahydroimidazo[4,5,1-jk][1]benzazepin-2(1H)-one] | 8.82 | 8.82 |
| CC(CCc1ccccc1O)N[C@@H]1CCn2c(=O)[nH]c3cccc(c32)[C@H]1O (mixture of isomers) [Example 6b, 7-Hydroxy-6-{[3-(2-hydroxyphenyl)-1-methylpropyl]amino}-4,5,6,7-tetrahydroimidazo[4,5,1-jk][1]benzazepin-2(1H)-one] | 8.85 | 8.70 |
| CC(CCc1cc(F)cc(F)c1O)N[C@@H]1CCn2c(=O)[nH]c3cccc(c32)[C@H]1O (mixture of isomers) [Example 10b, 6-{[3-(3,5-Difluoro-2-hydroxyphenyl)-1-methylpropyl]amino}-7-hydroxy-4,5,6,7-tetrahydroimidazo[4,5,1-jk][1]benzazepin-2(1H)-one] | 8.77 | 9.10 |
| CC(CCc1cc(F)c(F)cc1O)N[C@@H]1CCn2c(=O)[nH]c3cccc(c32)[C@H]1O (mixture of isomers) [Example 11a, 6-{[3-(4,5-Difluoro-2-hydroxyphenyl)-1-methylpropyl]amino}-7-hydroxy-4,5,6,7-tetrahydroimidazo[4,5,1-jk][1]benzazepin-2(1H)-one] | 8.94 | 8.92 |
| Cc1ccccc1CCC(C)N[C@@H]1CCn2c(=O)[nH]c3cccc(c32)[C@H]1O (mixture of isomers) [Example 13b, 7-hydroxy-6-{[1-Methyl-3-(2-methylphenyl)propyl]amino}-4,5,6,7-tetrahydroimidazo[4,5,1-jk][1]benzazepin-2(1H)-one] | 9.05 | 8.70 |
| CC(CCc1ccc(OC(C)C)cc1)N[C@@H]1CCn2c(=O)[nH]c3cccc(c32)[C@H]1O (mixture of isomers) [Example 16, 7-Hydroxy-6-{[3-(4-isopropoxyphenyl)-1-methylpropyl]amino}-4,5,6,7-tetrahydroimidazo[4,5,1-jk][1]benzazepin-2(1H)-one] | 8.26 | 7.76 |
| Cc1cccc(CCC(C)N[C@@H]2CCn3c(=O)[nH]c4cccc(c43)[C@H]2O)c1O (mixture of isomers) [Example 17, 7-Hydroxy-6-{[3-(2-hydroxy-3-methylphenyl)-1-methylpropyl]amino}-4,5,6,7-tetrahydroimidazo[4,5,1-jk][1]benzazepin-2(1H)-one] | 8.52 | 8.48 |
| CC(CCc1ccc(C(F)(F)F)cc1)N[C@@H]1CCn2c(=O)[nH]c3cccc(c32)[C@H]1O (mixture of isomers) [Example 18, 7-Hydroxy-6-({1-methyl-3-[4-(trifluoromethyl)phenyl]propyl}amino)-4,5,6,7-tetrahydroimidazo[4,5,1-jk][1]benzazepin-2(1H)-one] | 7.97 | 7.53 |
| COc1ccccc1CCC(C)N[C@@H]1CCn2c(=O)[nH]c3cccc(c32)[C@H]1O (mixture of isomers) [Example 20, 7-Hydroxy-6-{[3-(2-methoxyphenyl)-1-methylpropyl]amino}-4,5,6,7-tetrahydroimidazo[4,5,1-jk][1]benzazepin-2(1H)-one] | 7.45 | 8.12 |
| COc1ccc(O)c(CCC(C)N[C@@H]2CCn3c(=O)[nH]c4cccc(c43)[C@H]2O)c1 (mixture of isomers) [Example 21, 7-Hydroxy-6-{[3-(2-hydroxy-5-methoxyphenyl)-1-methylpropyl]amino}-4,5,6,7-tetrahydroimidazo[4,5,1-jk][1]benzazepin-2(1H)-one] | 8.51 | 8.49 |
| CC(CCc1cc(C#N)ccc1O)N[C@@H]1CCn2c(=O)[nH]c3cccc(c32)[C@H]1O (mixture of isomers) [Example 22, 4-Hydroxy-3-(3-{[7-hydroxy-2-oxo-1,2,4,5,6,7-hexahydroimidazo[4,5,1-jk][1]benzazepin-6-yl]amino}butyl)benzonitrile] | 8.64 | 8.92 |
| CC(CCc1ccc(F)cc1)N[C@@H]1CCn2c(=O)[nH]c3cccc(c32)[C@H]1O (mixture of isomers) [Example 23, 6-{[3-(4-Fluorophenyl)-1-methylpropyl]amino}-7-hydroxy-4,5,6,7-tetrahydroimidazo[4,5,1-jk][1]benzazepin-2(1H)-one] | 7.98 | 7.80 |
| CC(CCc1ccc(F)cc1O)N[C@@H]1CCn2c(=O)[nH]c3cccc(c32)[C@H]1O (mixture of isomers) [Example 24, 6-{[3-(4-Fluoro-2-hydroxyphenyl)-1-methylpropyl]amino}-7-hydroxy-4,5,6,7-tetrahydroimidazo[4,5,1-jk][1]benzazepin-2(1H)-one] | 8.38 | 8.57 |
| CC(CCc1cc(Cl)cc(Cl)c1O)N[C@@H]1CCn2c(=O)[nH]c3cccc(c32)[C@H]1O (mixture of isomers) [Example 25, 6-{[3-(3,5-Dichloro-2-hydroxyphenyl)-1-methylpropyl]amino}-7-hydroxy-4,5,6,7-tetrahydroimidazo[4,5,1-jk][1]benzazepin-2(1H)-one] | 8.57 | 8.66 |
| CC(CCc1ccc(Cl)cc1O)N[C@@H]1CCn2c(=O)[nH]c3cccc(c32)[C@H]1O (mixture of isomers) [Example 26, 6-{[3-(4-Chloro-2-hydroxyphenyl)-1-methylpropyl]amino}-7-hydroxy-4,5,6,7-tetrahydroimidazo[4,5,1-jk][1]benzazepin-2(1H)-one] | 8.77 | 8.51 |
| CC(CCc1cc(F)cc(Cl)c1O)N[C@@H]1CCn2c(=O)[nH]c3cccc(c32)[C@H]1O (mixture of isomers) [Example 27, 6-{[3-(3-Chloro-5-fluoro-2-hydroxyphenyl)-1-methylpropyl]amino}-7-hydroxy-4,5,6,7-tetrahydroimidazo[4,5,1-jk][1]benzazepin-2(1H)-one] | 8.66 | 9.22 |
| CC(CCc1cccc(F)c1O)N[C@@H]1CCn2c(=O)[nH]c3cccc(c32)[C@H]1O (mixture of isomers) [Example 28b, 6-{[3-(3-Fluoro-2-hydroxyphenyl)-1-methylpropyl]amino}-7-hydroxy-4,5,6,7-tetrahydroimidazo[4,5,1-jk][1]benzazepin-2(1H)-one] | 7.10 | 7.26 |
| CC(CCc1ccc(Cl)cc1Cl)N[C@@H]1CCn2c(=O)[nH]c3cccc(c32)[C@H]1O (mixture of isomers) [Example 29, 6-{[3-(2,4-Dichlorophenyl)-1-methylpropyl]amino}-7-hydroxy-4,5,6,7-tetrahydroimidazo[4,5,1-jk][1]benzazepin-2(1H)-one] | 8.19 | 8.16 |
| CC(CCc1cccc(C(F)(F)F)c1)N[C@@H]1CCn2c(=O)[nH]c3cccc(c32)[C@H]1O (mixture of isomers) [Example 30, 7-Hydroxy-6-({1-methyl-3-[3-(trifluoromethyl)phenyl]propyl}amino)-4,5,6,7-tetrahydroimidazo[4,5,1-jk][1]benzazepin-2(1H)-one] | 8.26 | 7.43 |
| CC(CCc1cc(C(F)(F)F)ccc1O)N[C@@H]1CCn2c(=O)[nH]c3cccc(c32)[C@H]1O (mixture of isomers) [Example 31, 7-Hydroxy-6-({3-[2-hydroxy-5-(trifluoromethyl)phenyl]-1-methylpropyl}amino)-4,5,6,7-tetrahydroimidazo[4,5,1-jk][1]benzazepin-2(1H)-one] | 8.09 | 7.57 |
| CC(CCc1c(F)cccc1Cl)N[C@@H]1CCn2c(=O)[nH]c3cccc(c32)[C@H]1O (mixture of isomers) [Example 32, 6-{[3-(2-Chloro-6-fluorophenyl)-1-methylpropyl]amino}-7-hydroxy-4,5,6,7-tetrahydroimidazo[4,5,1-jk][1]benzazepin-2(1H)-one] | 8.54 | 8.07 |
| CC(CCc1ccccc1NS(C)(=O)=O)N[C@@H]1CCn2c(=O)[nH]c3cccc(c32)[C@H]1O (mixture of isomers) [Example 33, N-[2-(3-{[7-Hydroxy-2-oxo-1,2,4,5,6,7-hexahydroimidazo[4,5,1-jk][1]benzazepin-6-yl]amino}butyl)phenyl]methanesulfonamide] | 7.92 | – |
| CC(/C=C/c1ccccc1NS(C)(=O)=O)N[C@@H]1CCn2c(=O)[nH]c3cccc(c32)[C@H]1O (mixture of isomers) [Example 42, N-{2-[3-{[7-Hydroxy-2-oxo-1,2,4,5,6,7-hexahydroimidazo[4,5,1-jk][1]benzazepin-6-yl]amino}but-1-en-1-yl]phenyl}methanesulfonamide] | 6.98 | 6.59 |
| CC(CCc1ccc(NS(=O)(=O)c2ccccc2)cc1)NC1CCn2c(=O)[nH]c3cccc(c32)C1O (single isomer, unassigned) [Example 67, N-{4-[3-{[7-Hydroxy-2-oxo-1,2,4,5,6,7-hexahydroimidazo[4,5,1-jk][1]benzazepin-6-yl]amino}butyl]phenyl}benzenesulfonamide] | – | 6.81 |
